Measurements as given in US10912752B2, “Methods and compositions for reducing ocular discomfort” (Brien Holden Vision Institute Limited, priority 2012, dated 2021).

Legend:
HCLE cells [1] = test: Annexin V/PI/Hoechst staining, confocal microscopy, damaged cells; assay type: cell-based, human; details: 500 mOsm + 10 mM, 16 h
Method: Cells undergoing apoptosis or necrosis were identified using Alexa Fluor 488 annexin V/Dead cell apoptosis assay (Invitrogen-Molecular probe) with some modifications. Cells were seeded at 6.5×10^4 cells mL^−1 in 75 cm^2 cell culture flask and incubated overnight. Once the cells reached 70%-80% confluence, they were subjected to different osmolarity treatments for 16 hours. Supernatants were removed and retained for collection of non-adherent cells. Adherent cells were rinsed twice with PBS and detached using 0.05% trypsin. The culture supernatant and trypsin digests were pelleted, rinsed twice in PBS, and combined during resuspenison in annexin-binding buffer. Five microlitres of Alexa Fluor 488 annexin V, 12.5 μg mL^−1 of Hoechst 33342 and 1 μg mL^−1 of propidium iodide (PI) were added to 100 μL of cell suspension containing approximately 1×10^5 cells and incubated at room temperature for 15 minutes. Cells were washed with 200 μL of annexin-binding buffer and deposited onto coverslips. […] Cells stained with annexin V, PI or Hoechst for apoptotic, necrotic or total cells, respectively, were quantified for each image using ImageJ (http://rsbweb.nih.gov/ij/; National Institutes of Health, Bethesda, Md.) to obtain an average value for each treatment.

HCLE cells [2] = test: CyQUANT cell number after hyperosmolar medium; assay type: cell-based, human; details: 5 or 10 mM, 500 mOsm, 16 h, vs hyperosmotic control
Method: (§1) 500 mOsm and exposure time (16 h) to be the most informative under which to observe hyperosmolality induced cellular responses of HCLE (results not shown). Thus, in the present study, a hyperosmotic medium of 500 mOsm and exposure time of 16 h were used throughout. Hyperosmolar media were prepared by the addition of NaCl to the medium. Medium osmolarity was measured using a Vapro 5520 vapour pressure osmometer (Wescor, Logan, Utah). Subconfluent cells were exposed to hyperosmolar media in the presence or absence of betaine (5 or 10 mM). Mitochondrial and proliferation activities for cell viability; TNF-α production; caspase activity and Annexin V/PI staining for apoptosis; and cellular shrinkage were monitored as detailed below.
(§2) MTT viability assay kit was used to measure cell viability (above). CyQUANT cell proliferation assay kit (Invitrogen-Molecular probe, Eugene, Oreg.) was used to determine the cell number. Culture supernatants were removed and centrifuged at 1500 rpm for 10 min to harvest any detached cells from the supernatant. Remaining cells were rinsed once with PBS. […] Fluorescence, indicating cell viability, was measured using SpectraFluor Plus microplate reader (Tecan, Männedorf, Switzerland); 485 nm for excitation and 535 nm for emission maxima.

[3] = Effect on final osmolarity of culture medium (vapour pressure osmometer); assay type: physicochemical; details: up to 10 mM; results not shown
Method: as §1

HCLE cells [4] = test: MTT mitochondrial activity after hyperosmolar medium; assay type: cell-based, human; details: 5 or 10 mM, 500 mOsm, 16 h, vs hyperosmotic control
Method: as §1, §2

[5] = test system: human corneal epithelial cell; test: Evaporative drying culture model, Annexin V/PI apoptotic/necrotic cells; assay type: cell-based; details: 0.25% in culture medium, 4 hrs evaporative drying, 34° C.
Method: A in vitro human corneal epithelial cell culture model was used where cells were cultured under a slow drying condition with the culture medium slowly evaporated over the time period of 4-4.5 hours at 34° C. (the temperature of human eyes) to mimic tear film evaporation.

effect on the final osmolarity of the medium [3] | Compound | percentage of damaged cells (of the total cells) (HCLE cells [1]) | increase in cell numbers (HCLE cells [2]) | increase in mitochondrial activity (HCLE cells [4]) | cellular damage (apoptotic and necrotic cells) caused by evaporation-increased osmolarity [5]
minimal effect | C[N+](C)(C)CC(=O)[O-] [betaine, trimethylglycine] | 7.5% | 12% | 17% | –
– | C[N+](C)(C)CC(O)CC(=O)[O-] (centres unmarked) [carnitine, 3-hydroxy-4-(trimethylazaniumyl)butanoate] | – | – | – | minimised the cellular damage
